Experimental data published in patent US20130267516A1, “SUBSTITUTED CYCLOPENTYL-AZINES AS CASR-ACTIVE COMPOUNDS” (LEO PHARMA A/S, priority 2010, published 2013).

Assays:
[1] = Clearance in human liver microsomes; type: in vitro ADME; conditions: hepatic extraction ratio; 0.5 μM compound, 0.5 mg/mL microsomes, 1 mM NADPH, 30 min
Description: Test compound concentration is 0.5 μM, microsome concentration is 0.5 mg/mL and NADPH concentration is 1 mM in the incubation. The described method is performed by the liquid handling system Tecan RSP and is based on a 96-well format.
Control incubations with test compound without NADPH and test compound without microsomes are conducted to investigate non-CYP mediated metabolism and stability in phosphate buffer at 37° C., respectively.
The human liver microsomal suspension in phosphate buffer is mixed with NADPH. The mixture is pre-heated (7 min) to 37° C. Test compound is added, and the mixture is incubated for 30 minutes. Incubations are run in duplicate. Samples are withdrawn at predetermined stop times and mixed with methanol containing internal standard (IS) to terminate all enzyme activity and precipitate proteins. A control without NADPH (to detect problems such as nonspecific protein binding, heat instability or non-CYP mediated metabolism) and a control without microsomes (for assessing compound stability in the absence of any active enzymes) are tested.
(§1) The percentage of organic solvent in the incubations is less than 1%. Careful inspections of reagents are performed prior to the start of any experiment to ensure all reagents are in solution.
(§2) The 96-well plates are centrifuged. Test compound depletion, using a compound specific LC/MS/MS method, is determined.
The logarithm of the peak area ratios of test compound to internal standard (IS) versus incubation time is plotted in a graph.
The rate constant (k) (min^−1) of test compound depletion is calculated from the linear part of the curve and the half-time (t1/2) in minutes can be calculated from the rate constant (Eq. 2).
Intrinsic clearance (Clint) (mL/min/mg protein) is calculated from: […]
where c is the microsomal protein concentration in mg/mL.
Intrinsic clearance is the maximum ability of the liver to extract a drug in the absence of blood flow restrictions.
Conversion to apparent clearance (Clapp) (mL/min/kg) is done by Eq. 4:
Clapp=Clint×a×b/d (Eq. 4)
where a, b and d are the scaling factors for normalizing Clint to human body weight.
The following human scaling factors are used:
a: 45 (microsomal protein/liver weight (mg/g)) b: 1500 (liver weight (g)) d: 70 (body weight (kg))
Hepatic clearance (Clh) (mL/min/kg) based on the well-stirred model is described as followed:
Clh=(Clapp·Q)/(Clapp+Q) (Eq. 5)
where Q is the liver blood flow in mL/min/kg (20 in humans).
Dividing hepatic clearance with liver blood flow, the hepatic extraction ratio (%) can be calculated:
(§3) Apparent clearance below approximately 10 mL/min/kg human body weight (corresponding to extraction ratio of approx. 33%) is considered as low clearance (high metabolic stability). Apparent intrinsic clearance above approximately 60 mL/min/kg human body weight (corresponding to extraction ratio of approx. 75%) is considered as high clearance (low metabolic stability).

[2] = Clearance in rat hepatocytes; type: in vitro ADME; conditions: hepatic extraction ratio; 0.5 μM compound, 1×10^6 cells/mL, 20 min
Description: Test compounds and 4 control compounds are tested in duplicate per run. Test compound concentration is 0.5 μM and cell concentration is 1×10^6 cells/mL in the incubation. The described method is performed by the liquid handling system Tecan RSP and is based on a 96-well format.
The liver is collected from a male Spraque-Dawley rat. One liver lobe is cut off and flushed with various buffers to loosen the cells. The cell suspension is washed and centrifuged, and the cell density is adjusted to 1.2×10^6 cells/mL with Krebs-Henseleit buffer, pH 7.4, containing 0.2% bovine serum albumin (BSA). Only cell suspensions with viability above 80% are used.
The cell suspension is pre-heated (20 min) to 37° C. Test compound is added, and the mixture is incubated for 20 minutes. Incubations are run in duplicate. Samples are withdrawn at predetermined stop times and mixed with methanol containing internal standard (IS) to terminate all enzyme activity and precipitate proteins.
as §1, §2
Data analysis is performed as described above in the section “Biological assay for analysis of clearance in human liver microsomes”, with the following modifications:
Intrinsic clearance (Clint) (mL/min/10^6 cells) is calculated from: […]
where c is the cell concentration in 10^6 cells/mL.
The following scaling factors for rat are used for eq. 4:
a: 120 (cells/liver weight (10^6 cells/g)) b: 10 (liver weight (g)) d: 0.25 (body weight (kg))
Liver blood flow in rats (for eq. 5):
as §3, with “25” for “10”, “rat” for “human”, “to an” for “to”, “165” for “60”

SMILES | Clearance (% Eh) in human liver microsomes [1] | Clearance (% Eh) in rat hepatocytes [2]
C[C@@H](N[C@H]1CC[C@@H](c2ccc(NCCNCCO)nc2)C1)c1cccc2ccccc12.O=CO.O=CO.O=CO [Compound 101, 2-[2-[[5-[(1R,3S)-3-[[(1R)-1-(1-Naphthyl)ethyl]amino]cyclopentyl]-2-pyridyl]amino]ethylamino]ethanol] | A (A: Eh < 33%) | B (B: 33% ≦ Eh ≦ 75%)
COc1cc([C@@H](C)N[C@H]2CC[C@@H](c3ccc(NC4CCNCC4)nc3)C2)ccc1F [Compound 107, 5-[(1R,3S)-3-[[(1R)-1-(4-Fluoro-3-methoxy-phenyl)ethyl]amino]cyclopentyl]-N-(4-piperidyl)pyridin-2-amine] | A (A: Eh < 33%) | A (A: Eh < 33%)
COc1cc([C@@H](C)N[C@H]2CC[C@@H](c3ccc(N4CCN(C(C)=O)CC4)nc3)C2)ccc1F [Compound 116, 1-[4-[5-[(1R,3S)-3-[[(1R)-1-(4-Fluoro-3-methoxyphenyl)ethyl]amino]cyclopentyl]-2-pyridyl]piperazin-1-yl]ethanone] | A (A: Eh < 33%) | A (A: Eh < 33%)
COc1cc([C@@H](C)N[C@H]2CC[C@@H](c3cnc(N4CCNC(=O)C4)nc3)C2)ccc1F [Compound 126, 4-[5-[(1R,3S)-3-[[(1R)-1-(4-Fluoro-3-methoxy-phenyl)ethyl]amino]cyclopentyl]pyrimidin-2-yl]piperazin-2-one] | A (A: Eh < 33%) | B (B: 33% ≦ Eh ≦ 75%)
COc1cc([C@@H](C)N[C@H]2CC[C@@H](c3cnc(N4CCN(C(C)=O)CC4)nc3)C2)ccc1F.O=CO [Compound 127, 1-[4-[5-[(1R,3S)-3-[[(1R)-1-(4-Fluoro-3-methoxy-phenyl)ethyl]amino]cyclopentyl]pyrimidin-2-yl]piperazin-1-yl]ethanone] | A (A: Eh < 33%) | A (A: Eh < 33%)

Second part, the molecule after the results:

Clearance (% Eh) in human liver microsomes [1] | Clearance (% Eh) in rat hepatocytes [2] | SMILES
A (A: Eh < 33%) | A (A: Eh < 33%) | COc1cc([C@@H](C)N[C@H]2CC[C@@H](c3ccc(N4CCNC(=O)C4)nc3)C2)ccc1F [Compound 109, 4-[5-[(1R,3S)-3-[[(1R)-1-(4-Fluoro-3-methoxy-phenyl)ethyl]amino]cyclopentyl]-2-pyridyl]piperazin-2-one]
A (A: Eh < 33%) | A (A: Eh < 33%) | COc1cc([C@@H](C)N[C@H]2CC[C@@H](c3ccc(NCCS(N)(=O)=O)nc3)C2)ccc1F [Compound 113, 2-[[5-[(1R,3S)-3-[[(1R)-1-(4-Fluoro-3-methoxyphenyl)ethyl]amino]cyclopentyl]-2-pyridyl]amino]ethanesulfonamide]
A (A: Eh < 33%) | A (A: Eh < 33%) | COc1cc([C@@H](C)N[C@H]2CC[C@@H](c3ccc(NCC(O)CO)nc3)C2)ccc1F (stereo partly drawn) [Compound 115, 3-[[5-[(1R,3S)-3-[[(1R)-1-(4-Fluoro-3-methoxyphenyl)ethyl]amino]cyclopentyl]-2-pyridyl]amino]propane-1,2-diol]
